ChEMBL document CHEMBL2434853, “3-(3-Butylamino-2-hydroxy-propoxy)-1-hydroxy-xanthen-9-one acts as a topoisomerase IIα catalytic inhibitor with low DNA damage” (Eur J Med Chem, 2013)
The source made the active and inactive calls. The rule behind the calls is not given here.

Key:
[1] = system: HEK293; experiment: Cytotoxicity against HEK293 cells after 2 days by CCK-8 assay; type: functional, cell-based; conditions: Homo sapiens, HEK293, 48 h
[2] = system: DU-145; experiment: Cytotoxicity against human DU145 cells after 2 days by CCK-8 assay; type: functional, cell-based; conditions: DU-145, 48 h
[3] = system: HCT-15; experiment: Cytotoxicity against human HCT15 cells after 2 days by CCK-8 assay; type: functional, cell-based; conditions: HCT-15, 48 h
[4] = system: T47D; experiment: Cytotoxicity against human T47D cells after 2 days by CCK-8 assay; type: functional, cell-based; conditions: 48 h
[5] = biological target: T1, DNA topoisomerase 2-alpha (Homo sapiens, UniProt P11388); experiment: Inhibition of human DNA topoisomerase-2alpha assessed as relaxation of supercoiled pBR322 DNA at 10 uM after 30 mins by agarose gel electrophoresis relative to control
[6] = biological target: T1, DNA topoisomerase 2-alpha; experiment: Inhibition of human DNA topoisomerase-2alpha assessed as relaxation of supercoiled pBR322 DNA at 100 uM after 30 mins by agarose gel electrophoresis relative to control
[7] = biological target: T1, DNA topoisomerase 2-alpha; experiment: Inhibition of human DNA topoisomerase-2alpha assessed as relaxation of supercoiled pBR322 DNA after 30 mins by agarose gel electrophoresis
[8] = biological target: T2, DNA topoisomerase 1 (Homo sapiens) (UniProt P11387); experiment: Inhibition of recombinant human DNA topoisomerase-1 assessed as relaxation of supercoiled pBR322 DNA at 20 uM after 30 mins by agarose gel electrophoresis relative to control
T2 sequence (whole entry): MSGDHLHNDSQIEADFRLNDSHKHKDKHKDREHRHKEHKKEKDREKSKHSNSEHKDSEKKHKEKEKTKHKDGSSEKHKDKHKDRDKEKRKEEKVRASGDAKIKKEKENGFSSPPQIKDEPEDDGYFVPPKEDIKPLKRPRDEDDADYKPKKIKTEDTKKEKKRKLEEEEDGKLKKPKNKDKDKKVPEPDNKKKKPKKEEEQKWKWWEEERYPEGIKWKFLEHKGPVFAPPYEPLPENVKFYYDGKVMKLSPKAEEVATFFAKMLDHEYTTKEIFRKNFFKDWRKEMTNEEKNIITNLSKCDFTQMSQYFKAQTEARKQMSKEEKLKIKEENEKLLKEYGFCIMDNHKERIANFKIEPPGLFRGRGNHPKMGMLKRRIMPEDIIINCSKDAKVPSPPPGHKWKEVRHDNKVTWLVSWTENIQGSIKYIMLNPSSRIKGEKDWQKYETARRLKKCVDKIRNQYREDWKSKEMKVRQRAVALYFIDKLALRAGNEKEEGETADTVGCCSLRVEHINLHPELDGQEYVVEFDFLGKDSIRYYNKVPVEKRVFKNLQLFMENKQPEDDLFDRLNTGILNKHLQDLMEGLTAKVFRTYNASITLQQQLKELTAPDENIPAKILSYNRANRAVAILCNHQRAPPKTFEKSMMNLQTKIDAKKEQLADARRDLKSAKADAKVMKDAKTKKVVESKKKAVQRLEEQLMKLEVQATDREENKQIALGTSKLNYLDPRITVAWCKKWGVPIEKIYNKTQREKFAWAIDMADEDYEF

[9] = biological target: T1, DNA topoisomerase 2-alpha; experiment: Inhibition of human DNA topoisomerase-2alpha assessed as relaxation of supercoiled pBR322 DNA at 20 uM after 30 mins by agarose gel electrophoresis relative to control
[10] = system: Escherichia coli; experiment: Induction of Escherichia coli pBR322 DNA intercalating activity assessed as retardation of DNA at 1 to 2.5 uM after 20 mins by agarose gel electrophoresis
[11] = biological target: T1, DNA topoisomerase 2-alpha; conditions: 100 uM
Description: Competitive inhibition of recombinant human DNA topoisomerase-2alpha assessed as relaxation of supercoiled pBR322 DNA at 100 uM after 30 mins by agarose gel electrophoresis in presence of 1 mM ATP relative to control

[12] = biological target: T1, DNA topoisomerase 2-alpha; conditions: 2 uM
Description: Competitive inhibition of recombinant human DNA topoisomerase-2alpha assessed as relaxation of supercoiled pBR322 DNA at 2 uM after 30 mins by agarose gel electrophoresis in presence of 1.5 mM ATP relative to control

[13] = system: Escherichia coli; experiment: Induction of Escherichia coli pBR322 DNA intercalating activity assessed as retardation of DNA at 300 uM after 20 mins by agarose gel electrophoresis
[14] = Induction of pHOT1 DNA (unknown origin) intercalating activity assessed as blockade of DNA unwinding after 30 mins by agarose gel electrophoresis in presence of DNA topoisomerase-1
[15] = system: HCT-15; experiment: Induction of DNA damage in human HCT15 cells at 10 uM after 24 hrs by comet assay; type: functional, cell-based
[16] = biological target: T1, DNA topoisomerase 2-alpha; conditions: 5 uM
Description: Competitive inhibition of recombinant human DNA topoisomerase-2alpha assessed as relaxation of supercoiled pBR322 DNA at 5 uM after 30 mins by agarose gel electrophoresis in presence of 1.5 mM ATP relative to control

[17] = biological target: T1, DNA topoisomerase 2-alpha; conditions: 10 uM
Description: Competitive inhibition of recombinant human DNA topoisomerase-2alpha assessed as relaxation of supercoiled pBR322 DNA at 10 uM after 30 mins by agarose gel electrophoresis in presence of 1 mM ATP relative to control

[18] = biological target: T1, DNA topoisomerase 2-alpha; conditions: 50 uM
Description: Competitive inhibition of recombinant human DNA topoisomerase-2alpha assessed as relaxation of supercoiled pBR322 DNA at 50 uM after 30 mins by agarose gel electrophoresis in presence of 1.5 mM ATP relative to control

[19] = biological target: T1, DNA topoisomerase 2-alpha; conditions: 50 uM; remark: listed apart in the source
Description: Competitive inhibition of recombinant human DNA topoisomerase-2alpha assessed as relaxation of supercoiled pBR322 DNA at 50 uM after 30 mins by agarose gel electrophoresis in presence of 1 mM ATP relative to control

[20] = biological target: T1, DNA topoisomerase 2-alpha; conditions: 2 uM; remark: listed apart in the source
Description: Competitive inhibition of recombinant human DNA topoisomerase-2alpha assessed as relaxation of supercoiled pBR322 DNA at 2 uM after 30 mins by agarose gel electrophoresis in presence of 1 mM ATP relative to control

[21] = biological target: T1, DNA topoisomerase 2-alpha; experiment: Inhibition of human DNA topoisomerase-2alpha ATPase activity using supercoiled pUC18 DNA as substrate assessed as inorganic phosphate release at 400 uM incubated for 30 mins prior to ATP addition measured after 30 mins by malachite green phosphate assay relative to control
[22] = biological target: T1, DNA topoisomerase 2-alpha; conditions: 100 uM; remark: listed apart in the source
Description: Competitive inhibition of recombinant human DNA topoisomerase-2alpha assessed as relaxation of supercoiled pBR322 DNA at 100 uM after 30 mins by agarose gel electrophoresis in presence of 1.5 mM ATP relative to control

[23] = biological target: T1, DNA topoisomerase 2-alpha; experiment: Inhibition of human DNA topoisomerase-2alpha ATPase activity using supercoiled pUC18 DNA as substrate assessed as inorganic phosphate release at 300 uM incubated for 30 mins prior to ATP addition measured after 30 mins by malachite green phosphate assay relative to control
[24] = biological target: T1, DNA topoisomerase 2-alpha; conditions: 5 uM; remark: listed apart in the source
Description: Competitive inhibition of recombinant human DNA topoisomerase-2alpha assessed as relaxation of supercoiled pBR322 DNA at 5 uM after 30 mins by agarose gel electrophoresis in presence of 1 mM ATP relative to control

[25] = biological target: T1, DNA topoisomerase 2-alpha; conditions: 20 uM
Description: Competitive inhibition of recombinant human DNA topoisomerase-2alpha assessed as relaxation of supercoiled pBR322 DNA at 20 uM after 30 mins by agarose gel electrophoresis in presence of 1.5 mM ATP relative to control

[26] = biological target: T1, DNA topoisomerase 2-alpha; conditions: 20 uM; remark: listed apart in the source
Description: Competitive inhibition of recombinant human DNA topoisomerase-2alpha assessed as relaxation of supercoiled pBR322 DNA at 20 uM after 30 mins by agarose gel electrophoresis in presence of 1 mM ATP relative to control

[27] = biological target: T1, DNA topoisomerase 2-alpha; conditions: 10 uM; remark: listed apart in the source
Description: Competitive inhibition of recombinant human DNA topoisomerase-2alpha assessed as relaxation of supercoiled pBR322 DNA at 10 uM after 30 mins by agarose gel electrophoresis in presence of 1.5 mM ATP relative to control

[28] = biological target: T1, DNA topoisomerase 2-alpha; experiment: Inhibition of human DNA topoisomerase-2alpha ATPase activity using supercoiled pUC18 DNA as substrate assessed as inorganic phosphate release at 200 uM incubated for 30 mins prior to ATP addition measured after 30 mins by malachite green phosphate assay relative to control
[29] = system: HCT-15; experiment: Potency index, ratio of etoposide IC50 to compound IC50 for human HCT15 cells; type: functional
[30] = Induction of pHOT1 DNA (unknown origin) intercalating activity assessed as blockade of DNA unwinding at 50 to 500 uM after 30 mins by agarose gel electrophoresis in presence of DNA topoisomerase-1

T1 sequence (P11388 whole entry): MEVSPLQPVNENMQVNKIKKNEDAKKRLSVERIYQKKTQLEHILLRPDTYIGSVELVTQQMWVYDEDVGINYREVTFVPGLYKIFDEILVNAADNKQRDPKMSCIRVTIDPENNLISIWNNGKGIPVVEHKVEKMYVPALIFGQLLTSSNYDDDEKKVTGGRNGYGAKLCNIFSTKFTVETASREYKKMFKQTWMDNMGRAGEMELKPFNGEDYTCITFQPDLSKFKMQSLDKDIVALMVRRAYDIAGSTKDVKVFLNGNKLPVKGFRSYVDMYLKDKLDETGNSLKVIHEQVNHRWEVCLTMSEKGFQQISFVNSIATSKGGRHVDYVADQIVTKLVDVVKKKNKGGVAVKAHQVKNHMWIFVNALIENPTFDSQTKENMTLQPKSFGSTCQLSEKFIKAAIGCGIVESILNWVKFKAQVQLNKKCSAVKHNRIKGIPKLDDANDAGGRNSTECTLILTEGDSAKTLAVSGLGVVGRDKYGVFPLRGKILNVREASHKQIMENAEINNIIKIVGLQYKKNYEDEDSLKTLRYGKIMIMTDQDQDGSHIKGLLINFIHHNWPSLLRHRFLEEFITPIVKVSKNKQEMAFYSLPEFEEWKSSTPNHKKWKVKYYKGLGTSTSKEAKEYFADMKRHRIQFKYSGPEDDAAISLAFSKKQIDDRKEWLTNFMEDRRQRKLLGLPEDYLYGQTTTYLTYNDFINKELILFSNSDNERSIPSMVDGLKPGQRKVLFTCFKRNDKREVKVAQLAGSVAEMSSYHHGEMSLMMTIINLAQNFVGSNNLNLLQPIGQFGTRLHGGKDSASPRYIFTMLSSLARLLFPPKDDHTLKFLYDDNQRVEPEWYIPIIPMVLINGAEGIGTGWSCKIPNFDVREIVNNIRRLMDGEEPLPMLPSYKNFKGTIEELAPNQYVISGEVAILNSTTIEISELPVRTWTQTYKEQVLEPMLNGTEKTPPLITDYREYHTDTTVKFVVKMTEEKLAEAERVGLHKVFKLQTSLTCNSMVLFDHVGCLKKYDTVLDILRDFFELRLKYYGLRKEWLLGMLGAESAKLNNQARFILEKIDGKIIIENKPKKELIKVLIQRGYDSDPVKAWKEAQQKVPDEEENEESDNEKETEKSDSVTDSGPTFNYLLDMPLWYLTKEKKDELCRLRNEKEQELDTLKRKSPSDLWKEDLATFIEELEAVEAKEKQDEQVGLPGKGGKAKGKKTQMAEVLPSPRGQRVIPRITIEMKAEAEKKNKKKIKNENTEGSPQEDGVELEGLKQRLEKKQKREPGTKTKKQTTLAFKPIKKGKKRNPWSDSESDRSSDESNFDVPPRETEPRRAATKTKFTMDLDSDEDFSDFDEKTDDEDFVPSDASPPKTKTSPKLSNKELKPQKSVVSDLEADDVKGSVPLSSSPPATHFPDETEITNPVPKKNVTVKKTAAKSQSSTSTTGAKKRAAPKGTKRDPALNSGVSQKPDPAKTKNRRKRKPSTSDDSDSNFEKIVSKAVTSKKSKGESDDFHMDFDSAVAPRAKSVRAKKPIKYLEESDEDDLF

SMILES	IC50 [1]	IC50 [2]	IC50 [3]	IC50 [4]	inhibition [5]	inhibition [6]	IC50 [7]	inhibition [8]	inhibition [9]	other results
COc1cccc2c1C(=O)c1c(O)c3c(c(O)c1C2=O)C[C@@](O)(C(=O)CO)C[C@@H]3O[C@H]1C[C@H](N)[C@H](O)[C@H](C)O1 [DOXORUBICIN]	3.07 µM	2.68 µM	1.38 µM	0.41 µM						
CCCCNCC(O)COc1cc(O)c2c(=O)c3cccc(OC)c3oc2c1 (configuration not stated)	1.74 µM	3.31 µM	9.11 µM	2.97 µM	24.2%	100%	11.2 µM	0%	68.1%	
CCCNCC(O)COc1cc(O)c2c(=O)c3cccc(OC)c3oc2c1 (configuration not stated)	3.62 µM	1.48 µM	5.39 µM	3.33 µM	6%	100%	12 µM	0%	64.4%	
CCCCCCNCC(O)COc1cc(O)c2c(=O)c3ccccc3oc2c1 (configuration not stated)	1.45 µM	1.15 µM	1.53 µM	1.28 µM	0%	80.7%	19.7 µM	0%	43.6%	
CC[C@@]1(O)C(=O)OCc2c1cc1n(c2=O)Cc2cc3ccccc3nc2-1 [CAMPTOTHECIN]	0.78 µM	0.39 µM	0.42 µM	0.3 µM						
CC[n+]1c(-c2ccccc2)c2cc(N)ccc2c2ccc(N)cc21										Activity [10]: Active
CCCCCNCC(O)COc1cc(O)c2c(=O)c3ccccc3oc2c1 (configuration not stated)	2.65 µM	1.13 µM	0.71 µM	1.62 µM	0.7%	92.9%	16.4 µM	3%	52.1%	
CCCCCNCC(O)COc1cc(O)c2c(=O)c3cccc(OC)c3oc2c1 (configuration not stated)	7.22 µM	0.91 µM	1 µM	9.8 µM	2%	100%	13.8 µM	0%	62.6%	
CCCCCCNCC(O)COc1cc(O)c2c(=O)c3cccc(OC)c3oc2c1 (configuration not stated)	4.53 µM	1.79 µM	6.32 µM	6.17 µM	0%	100%	13.8 µM	0%	61.2%	
CCCCNCC(O)COc1cc(O)c2c(=O)c3ccccc3oc2c1 (configuration not stated)	3.44 µM	1.98 µM	0.78 µM	0.93 µM	64%	95.1%	9 µM	0%	67.7%	inhibition [11]: 88.7%; inhibition [12]: 7.1%; Activity [13]: Active; Activity [14]: Dose-dependent effect; Activity [15]: inactive; inhibition [16]: 17.5%; inhibition [17]: 60.4%; inhibition [18]: 64.9%; inhibition [19]: 87.7%; inhibition [20]: 4%; inhibition [21]: 33.7%; inhibition [22]: 88.7%; inhibition [23]: 23.9%; inhibition [24]: 48.5%; inhibition [25]: 37.7%; inhibition [26]: 87.9%; inhibition [27]: 21%; inhibition [28]: 15.1%; Ratio IC50 [29]: 6.6
COc1cc(NS(C)(=O)=O)ccc1Nc1c2ccccc2nc2ccccc12										Activity [30]: Active
CCCNCC(O)COc1cc(O)c2c(=O)c3ccccc3oc2c1 (configuration not stated)	4.28 µM	1.98 µM	5.49 µM	6.49 µM	50.2%	93.8%	10.4 µM	0%	60.2%	
COc1cc([C@@H]2c3cc4c(cc3[C@@H](O[C@@H]3O[C@@H]5CO[C@@H](C)O[C@H]5[C@H](O)[C@H]3O)[C@H]3COC(=O)[C@H]23)OCO4)cc(OC)c1O [ETOPOSIDE]	0.72 µM	9.29 µM	5.12 µM	3.42 µM	18%					inhibition [11]: 87.6%; Activity [15]: Active; inhibition [22]: 82.6%
CO[C@@H]1[C@@H](OC(N)=O)[C@@H](O)[C@H](Oc2ccc3c(O)c(NC(=O)c4ccc(O)c(CC=C(C)C)c4)c(=O)oc3c2C)OC1(C)C										inhibition [21]: 76.8%; inhibition [23]: 63.6%; inhibition [28]: 14.4%
